Measured values reported in US4980283A, “Renin-inhibitory pepstatin phenyl derivatives” (Merck & Co., Inc., priority 1989, dated 1990).
Square brackets hold non-standard residues; d marks the D form. Peptide text beside a SMILES is read from it. * marks the point of attachment. Sta = CC(C)C[C@H](N)[C@@H](O)CC(=O)O; Isovaleryl = CC(C)CC(=O)*

Tests used:
[1] = tested on: hog renin; settings: after the injection of hog renin into nephrectomized rats; cited from earlier work
[2] = tested on: renin enzyme prepared from hog kidney; assay: Renin assay (solid phase radioimmunoassay of angiotensin I); type: biochemical; settings: ratio of renin I50 to pepsin I50
Experimental: The compound of Example 1 was evaluated against renin, employing a solid phase radioimmunossay adapted and modified from the assay of Ikedo et al., W. of Clinical Endocrinology and Metabolism, 54, 423-428, 1982), and pepsin assays as illustrated below:
Ten μl of the test inhibitor/broth extract from Example 1 was mixed with 5 μl of 0.11M phenylmethylsulfonyl fluoride and 0.25 ml of 0.1M potassium phosphate buffer, pH 7.0, containing 0.05% sodium azide and one mg/ml of bovine serum albumin. Twenty μl of 2 μg renin enzyme prepared from hog kidney was added and the mixture was incubated at 37° C. for 20 minutes. The enzyme reaction was initiated by adding 20 μl of substrate solution which was prepared by dissolving 4 mg of angiotensinogen in 4 ml of 0.1M potassium phosphate buffer, pH 7.0, containing 0.05% sodium azide and 1 mg/ml of BSA.
After 20 minutes' incubation at 37° C., the enzyme reaction was stopped by the addition of 100 μl of ^125 I-angiotensin I tracer-pepstatin. […] Two ml of water was then added to each tube and the solution was aspirated, with the tube with the ball being counted in a γ-counter.
The activity of the test compound was calculated based on the standard curve of known amount of angiotensin I.

SMILES: CC(C)CC(=O)N[C@H](C(=O)N[C@H](C(=O)N[C@@H](CC(C)C)[C@@H](O)CC(=O)N[C@@H](C)C(=O)N[C@@H](CC(C)C)[C@@H](O)CC(=O)O)C(C)C)C(C)C [Pepstatin A] (Isovaleryl-VV[Sta]A[Sta]-OH)
- blood pressure in vivo [1]: reduces blood pressure
- I50 ratio of renin/pepsin [2]: 1160
